Assay results as given in patent US5332736A, “Anti-convulsant aroyl aminoacylpyrroles” (Ortho Pharmaceutical Corporation, priority 1993, dated 1994).

Tested on: toxic extensor seizure
Experiment: maximal electroshock test (MES), mouse; block of the toxic extensor seizure (Swinyard 1952 method)
Format: in vivo
Conditions: ip
Text: The compound of formula (I) are useful as anticonvulsant agents. The anticonvulsant activity of the subject compounds was determine using a standard "maximal electroshock test" (MES). In this test, activity is indicated by a block of the toxic extensor seizure, as described by Swinyard et al in J. Pharmacol,. Exptl. Therap. 106, 319 (1952). A more recent description of current anticonvulsant drug screening is given in Swinyard et al., in Epilepsia 19, 409 (1978).

SMILES	ED50 [mg/kg]
Cn1cc(C(=O)CN2CCCCC2)cc1C(=O)c1ccc(Cl)cc1 [Example 9-1]	24.4
Cc1c(C(=O)CN2CCOCC2)c(C)n(C)c1C(=O)c1ccc(Cl)cc1 [Example 9-2]	87.6
CCN(CC)CC(=O)c1cc(C(=O)c2ccc(Cl)cc2)n(C)c1 [Example 9-4]	14.4
Cc1c(C(=O)CN2CCCC2)c(C)n(C)c1C(=O)c1ccc(Cl)cc1 [Example 9-5]	15.2
Cn1cc(C(=O)CN2CCCCC2)cc1C(=O)c1ccccc1Cl [Example 9-10]	5.38
Cn1cc(C(=O)CN2CCCCCC2)cc1C(=O)c1ccc(Cl)cc1 [Example 9-11]	27.5
Cn1cc(C(=O)CN2CCCC2)cc1C(=O)c1cccc(Cl)c1 [Example 9-24]	16.5
Cn1cc(C(=O)CN2CCOCC2)cc1C(=O)c1cccc(Cl)c1 [Example 9-25]	37.4
O=C(CN1CCOCC1)c1c[nH]c(C(=O)c2ccc(Cl)cc2)c1 [Example 9-27]	86.2
CCN(CC)CC(=O)c1cc(C(=O)c2ccc(OC)cc2)n(C)c1 [Example 9-29]	33
Cn1cc(C(=O)CN2CCCC2)cc1C(=O)c1ccc(Cl)cc1 [Example 9-30]	49.1
CCN(CC)CC(=O)c1c(C)c(C(=O)c2ccc(Cl)cc2)n(C)c1C [Example 9-32]	10.3
CCN(CC)CC(=O)c1c(C)c(C(=O)c2ccc(Cl)cc2Cl)n(C)c1C [Example 9-34]	14.9
